Measured values published in paper PMC8776063, “Aurora Kinase A Is Involved in Controlling the Localization of Aquaporin-2 in Renal Principal Cells” (International Journal of Molecular Sciences, 2022).
Where two headings read alike, the source gives them in different places.

Key:
STK38L = molecular target: T1, STK38L (Homo sapiens, UniProt Q9Y2H1); test: Thermal shift assay; format: binding; settings: read-out: ΔTm STK38L
T1 construct: purchased in-house thermal shift (DSF) kinase panel (SGC Frankfurt); Promega NanoBRET for AURKA/B/C
T1 sequence (Q9Y2H1 90-453): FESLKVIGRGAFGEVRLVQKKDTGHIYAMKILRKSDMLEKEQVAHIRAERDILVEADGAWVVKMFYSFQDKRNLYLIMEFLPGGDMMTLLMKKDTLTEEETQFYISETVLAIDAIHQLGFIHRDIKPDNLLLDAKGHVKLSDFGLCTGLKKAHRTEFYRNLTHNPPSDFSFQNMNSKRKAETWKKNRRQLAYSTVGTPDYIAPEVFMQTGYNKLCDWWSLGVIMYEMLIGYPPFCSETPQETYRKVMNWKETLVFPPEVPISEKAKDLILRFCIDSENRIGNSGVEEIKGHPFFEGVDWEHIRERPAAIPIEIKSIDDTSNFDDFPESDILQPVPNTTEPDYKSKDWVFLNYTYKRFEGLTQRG

AKT3 = molecular target: T2, AKT3 (Homo sapiens, UniProt Q9Y243); test: Thermal shift assay; format: binding; settings: read-out: ΔTm AKT3
T2 construct: purchased in-house thermal shift (DSF) kinase panel (SGC Frankfurt); Promega NanoBRET for AURKA/B/C
T2 sequence (Q9Y243 148-479): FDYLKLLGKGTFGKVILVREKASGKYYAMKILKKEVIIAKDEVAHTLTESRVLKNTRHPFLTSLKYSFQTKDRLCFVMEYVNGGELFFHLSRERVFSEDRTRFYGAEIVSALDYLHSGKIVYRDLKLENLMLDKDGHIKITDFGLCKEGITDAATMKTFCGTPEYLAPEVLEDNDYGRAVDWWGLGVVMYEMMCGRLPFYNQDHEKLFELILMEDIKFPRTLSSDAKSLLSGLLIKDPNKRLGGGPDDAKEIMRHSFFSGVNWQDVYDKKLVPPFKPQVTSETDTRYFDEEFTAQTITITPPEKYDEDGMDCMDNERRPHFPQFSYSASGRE

PHKG2 = molecular target: T3, PHKG2 (Homo sapiens, UniProt P15735); test: Thermal shift assay; format: binding; settings: read-out: ΔTm PHKG2
T3 construct: purchased in-house thermal shift (DSF) kinase panel (SGC Frankfurt); Promega NanoBRET for AURKA/B/C
T3 sequence (P15735 6-293): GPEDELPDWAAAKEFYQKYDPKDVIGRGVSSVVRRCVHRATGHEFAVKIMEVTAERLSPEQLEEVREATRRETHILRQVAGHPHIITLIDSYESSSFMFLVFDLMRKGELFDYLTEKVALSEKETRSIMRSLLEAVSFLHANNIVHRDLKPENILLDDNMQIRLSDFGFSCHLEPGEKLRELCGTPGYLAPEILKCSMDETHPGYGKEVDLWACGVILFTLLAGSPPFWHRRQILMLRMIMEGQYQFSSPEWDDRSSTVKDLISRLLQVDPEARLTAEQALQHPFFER

ABL1 = molecular target: T4, ABL1 (Homo sapiens, UniProt P00519); test: Thermal shift assay; format: binding; settings: read-out: ΔTm ABL1
T4 construct: purchased in-house thermal shift (DSF) kinase panel (SGC Frankfurt); Promega NanoBRET for AURKA/B/C
T4 sequence (P00519 229-512): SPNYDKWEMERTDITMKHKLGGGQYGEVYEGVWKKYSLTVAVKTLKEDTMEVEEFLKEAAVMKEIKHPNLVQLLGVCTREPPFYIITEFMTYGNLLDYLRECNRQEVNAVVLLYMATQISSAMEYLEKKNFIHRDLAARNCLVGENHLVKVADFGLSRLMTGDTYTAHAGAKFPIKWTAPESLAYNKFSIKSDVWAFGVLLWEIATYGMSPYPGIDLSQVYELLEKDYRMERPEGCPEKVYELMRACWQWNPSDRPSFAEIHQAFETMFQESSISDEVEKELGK

AURKB = AURKB (Homo sapiens, UniProt Q96GD4); test: NanoBRET assay in HEK293T cells; format: cell-based; set-up: full-length wild-type AURKA, AURKB, and AURKC were obtained as plasmids cloned in frame with a C-terminal NanoLuc-fusion; host or cells: HEK293T
Sequence of AURKB (Q96GD4 whole entry, the tested form may be a part): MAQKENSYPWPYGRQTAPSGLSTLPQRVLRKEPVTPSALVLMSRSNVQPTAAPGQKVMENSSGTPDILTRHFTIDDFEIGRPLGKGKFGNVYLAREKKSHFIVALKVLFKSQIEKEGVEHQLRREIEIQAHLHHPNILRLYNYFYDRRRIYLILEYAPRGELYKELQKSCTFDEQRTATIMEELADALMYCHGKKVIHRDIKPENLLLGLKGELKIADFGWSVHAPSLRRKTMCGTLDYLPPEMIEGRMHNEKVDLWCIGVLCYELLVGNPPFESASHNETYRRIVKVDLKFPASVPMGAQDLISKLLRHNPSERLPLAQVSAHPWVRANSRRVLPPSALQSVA

MERTK = molecular target: T5, MERTK (Homo sapiens, UniProt Q12866); test: Thermal shift assay; format: binding; settings: read-out: ΔTm MERTK
T5 construct: purchased in-house thermal shift (DSF) kinase panel (SGC Frankfurt); Promega NanoBRET for AURKA/B/C
T5 sequence (Q12866 570-864): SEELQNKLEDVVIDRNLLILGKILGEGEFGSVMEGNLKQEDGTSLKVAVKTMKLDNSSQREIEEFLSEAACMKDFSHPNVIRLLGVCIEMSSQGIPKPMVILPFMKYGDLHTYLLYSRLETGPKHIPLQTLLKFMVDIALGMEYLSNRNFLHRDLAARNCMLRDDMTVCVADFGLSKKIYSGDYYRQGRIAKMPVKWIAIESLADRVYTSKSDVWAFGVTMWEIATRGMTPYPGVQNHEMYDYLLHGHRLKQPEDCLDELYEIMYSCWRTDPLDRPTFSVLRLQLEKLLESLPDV

STK10 = molecular target: T6, STK10 (Homo sapiens, UniProt O94804); test: Thermal shift assay; format: binding; settings: read-out: ΔTm STK10
T6 construct: purchased in-house thermal shift (DSF) kinase panel (SGC Frankfurt); Promega NanoBRET for AURKA/B/C
T6 sequence (O94804 18-317): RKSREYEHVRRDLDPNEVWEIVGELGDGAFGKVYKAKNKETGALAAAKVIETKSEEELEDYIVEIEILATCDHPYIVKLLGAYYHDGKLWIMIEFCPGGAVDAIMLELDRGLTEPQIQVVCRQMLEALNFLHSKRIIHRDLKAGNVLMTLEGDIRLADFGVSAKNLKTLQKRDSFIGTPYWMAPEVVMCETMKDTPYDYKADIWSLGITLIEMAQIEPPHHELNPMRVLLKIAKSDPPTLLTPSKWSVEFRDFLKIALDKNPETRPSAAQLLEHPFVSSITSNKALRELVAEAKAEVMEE

FGFR2 = molecular target: T7, FGFR2 (Homo sapiens, UniProt P21802); test: Thermal shift assay; format: binding; settings: read-out: ΔTm FGFR2
T7 construct: purchased in-house thermal shift (DSF) kinase panel (SGC Frankfurt); Promega NanoBRET for AURKA/B/C
T7 sequence (P21802 458-768): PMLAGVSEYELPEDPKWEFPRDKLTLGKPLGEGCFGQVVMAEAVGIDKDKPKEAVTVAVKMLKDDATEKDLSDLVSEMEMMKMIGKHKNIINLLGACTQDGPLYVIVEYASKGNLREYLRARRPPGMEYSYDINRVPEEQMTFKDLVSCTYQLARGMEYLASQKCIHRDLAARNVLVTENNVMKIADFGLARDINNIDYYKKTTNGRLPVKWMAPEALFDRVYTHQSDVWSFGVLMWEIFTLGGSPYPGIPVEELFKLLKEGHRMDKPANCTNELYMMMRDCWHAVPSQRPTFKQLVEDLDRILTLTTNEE

AURKA = molecular target: T8, AURKA (Homo sapiens, UniProt O14965); test: Thermal shift assay; format: binding; settings: read-out: ΔTm AURKA
T8 construct: purchased in-house thermal shift (DSF) kinase panel (SGC Frankfurt); Promega NanoBRET for AURKA/B/C
T8 sequence (O14965 122-403): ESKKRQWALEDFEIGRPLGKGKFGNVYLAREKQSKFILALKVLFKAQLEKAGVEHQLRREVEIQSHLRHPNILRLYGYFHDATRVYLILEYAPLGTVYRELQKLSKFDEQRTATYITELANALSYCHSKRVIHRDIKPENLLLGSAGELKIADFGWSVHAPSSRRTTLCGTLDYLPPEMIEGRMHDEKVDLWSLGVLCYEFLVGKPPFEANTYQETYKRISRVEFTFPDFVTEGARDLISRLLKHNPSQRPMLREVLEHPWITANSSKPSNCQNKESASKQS

CASK = molecular target: T9, CASK (Homo sapiens, UniProt O14936); test: Thermal shift assay; format: binding; settings: read-out: ΔTm CASK
T9 construct: purchased in-house thermal shift (DSF) kinase panel (SGC Frankfurt); Promega NanoBRET for AURKA/B/C
T9 sequence (O14936 1-337): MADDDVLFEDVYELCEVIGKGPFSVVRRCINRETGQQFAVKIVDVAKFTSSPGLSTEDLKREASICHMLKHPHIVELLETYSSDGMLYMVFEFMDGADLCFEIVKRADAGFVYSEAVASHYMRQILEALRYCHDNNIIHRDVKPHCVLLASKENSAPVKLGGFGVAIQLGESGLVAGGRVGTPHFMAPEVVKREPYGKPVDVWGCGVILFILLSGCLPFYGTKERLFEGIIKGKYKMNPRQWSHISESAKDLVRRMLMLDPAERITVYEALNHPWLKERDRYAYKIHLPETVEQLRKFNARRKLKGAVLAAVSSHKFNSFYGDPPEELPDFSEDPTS

AURKC = molecular target: T10, AURKC (Homo sapiens, UniProt Q9UQB9); test: NanoBRET assay in HEK293T cells; format: cell-based
T10 construct: full-length wild-type AURKA, AURKB, and AURKC were obtained as plasmids cloned in frame with a C-terminal NanoLuc-fusion; host or cells: HEK293T
T10 sequence (Q9UQB9 1-309): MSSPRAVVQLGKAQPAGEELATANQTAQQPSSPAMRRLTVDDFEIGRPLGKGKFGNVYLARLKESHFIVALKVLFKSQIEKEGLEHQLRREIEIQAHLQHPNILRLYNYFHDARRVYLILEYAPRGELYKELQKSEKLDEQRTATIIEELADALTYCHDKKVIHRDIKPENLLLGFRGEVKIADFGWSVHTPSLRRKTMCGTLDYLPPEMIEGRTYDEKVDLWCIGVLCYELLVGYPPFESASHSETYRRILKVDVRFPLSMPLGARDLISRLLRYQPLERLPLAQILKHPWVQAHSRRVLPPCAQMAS

FES = molecular target: T11, FES (Homo sapiens, UniProt P07332); test: Thermal shift assay; format: binding; settings: read-out: ΔTm FES
T11 construct: purchased in-house thermal shift (DSF) kinase panel (SGC Frankfurt); Promega NanoBRET for AURKA/B/C
T11 sequence (P07332 whole entry): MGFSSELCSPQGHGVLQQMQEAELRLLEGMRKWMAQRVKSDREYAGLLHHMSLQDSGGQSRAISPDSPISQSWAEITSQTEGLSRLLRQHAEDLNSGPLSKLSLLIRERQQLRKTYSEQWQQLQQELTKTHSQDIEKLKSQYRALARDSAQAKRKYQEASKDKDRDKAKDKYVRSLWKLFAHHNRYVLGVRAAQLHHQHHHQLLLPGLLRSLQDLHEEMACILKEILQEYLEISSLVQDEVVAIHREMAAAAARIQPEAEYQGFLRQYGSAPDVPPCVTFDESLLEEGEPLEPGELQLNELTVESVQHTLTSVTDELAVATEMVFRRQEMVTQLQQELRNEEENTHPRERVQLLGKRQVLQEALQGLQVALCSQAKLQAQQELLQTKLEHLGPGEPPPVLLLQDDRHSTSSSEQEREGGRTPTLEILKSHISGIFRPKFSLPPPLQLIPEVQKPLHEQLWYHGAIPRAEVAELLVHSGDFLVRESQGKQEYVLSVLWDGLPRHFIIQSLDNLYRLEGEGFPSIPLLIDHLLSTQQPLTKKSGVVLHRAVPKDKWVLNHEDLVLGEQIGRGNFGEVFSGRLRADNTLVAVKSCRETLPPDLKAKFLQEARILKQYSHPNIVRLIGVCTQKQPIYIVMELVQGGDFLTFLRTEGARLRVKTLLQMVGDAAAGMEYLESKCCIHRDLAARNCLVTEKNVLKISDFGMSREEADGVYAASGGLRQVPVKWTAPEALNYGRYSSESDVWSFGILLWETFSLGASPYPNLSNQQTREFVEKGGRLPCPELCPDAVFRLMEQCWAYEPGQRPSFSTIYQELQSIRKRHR

[1] = NanoBRET, HEK293T cells overexpressing the kinase, Table 2, read-out: AURKB IC50
[2] = NanoBRET, n = 2, mean, Figure 6B, read-out: affinity to intracellular AURKB
[3] = NanoBRET, n = 2, mean, Figure 6B, read-out: affinity to intracellular AURKC

Molecule `CCN1CCN(C(=O)Cc2ccc(Nc3ncc(F)c(Nc4ccc(C(=O)O)cc4)n3)cc2)CC1` [ERJ2-12] has a ΔTm at 10 µM (STK38L; compound 10 µM, n = 3) of 0.2 °C, a ΔTm at 10 µM (AKT3; compound 10 µM, n = 3) of -0.1 °C and a ΔTm at 10 µM (PHKG2; compound 10 µM, n = 3) of 0.2 °C. For the same molecule, the ΔTm at 10 µM (ABL1; compound 10 µM, n = 3) was 2.6 °C, the IC50 (AURKB; [1]) was greater than 50 µM and the ΔTm at 10 µM (MERTK; compound 10 µM, n = 3) was 0.3 °C. The ΔTm at 10 µM (STK10; compound 10 µM, n = 3) was 2.2 °C, the ΔTm at 10 µM (FGFR2; compound 10 µM, n = 3) was 2.9 °C and the ΔTm at 10 µM (AURKA; compound 10 µM, n = 3) was 9.5 °C. For the same molecule, the ΔTm at 10 µM (CASK; compound 10 µM, n = 3) was 0 °C, the IC50 (AURKC; NanoBRET, n = 2, Figure 6B, bounds, read-out: affinity to intracellular AURKC) was greater than 50 µM and the ΔTm at 10 µM (FES; compound 10 µM, n = 3) was 0.4 °C.
`NC(=O)Cc1ccc(Nc2ncc(F)c(Nc3ccc(C(=O)Nc4ccccc4Cl)cc3)n2)cc1` [ERJ2-06] was tested, and the ΔTm at 10 µM (STK38L; compound 10 µM, n = 3) was 2.5 °C, the ΔTm at 10 µM (AKT3; compound 10 µM, n = 3) was 0.1 °C and the ΔTm at 10 µM (PHKG2; compound 10 µM, n = 3) was 0.9 °C. The ΔTm at 10 µM (ABL1; compound 10 µM, n = 3) was 1.7 °C, the IC50 (AURKB; [2]) was 13.6 µM and the ΔTm at 10 µM (MERTK; compound 10 µM, n = 3) was 1.3 °C. For the same molecule, the ΔTm at 10 µM (STK10; compound 10 µM, n = 3) was 1.4 °C, the ΔTm at 10 µM (FGFR2; compound 10 µM, n = 3) was 2.4 °C and the ΔTm at 10 µM (AURKA; compound 10 µM, n = 3) was 15.5 °C. The ΔTm at 10 µM (CASK; compound 10 µM, n = 3) was 0.1 °C, the IC50 (AURKC; [3]) was 12 µM and the ΔTm at 10 µM (FES; compound 10 µM, n = 3) was 1.4 °C.
`CCN1CCN(C(=O)Cc2ccc(Nc3ncc(F)c(Nc4ccc(C(=O)Nc5ccccc5Cl)cc4)n3)cc2)CC1` [Aurora-A inhibitor I, reference compound] gave a ΔTm at 10 µM (STK38L) of 2.1 °C, a ΔTm at 10 µM (AKT3) of 0.2 °C and a ΔTm at 10 µM (PHKG2) of 0.7 °C. For the same molecule, the ΔTm at 10 µM (ABL1) was 3.1 °C, the IC50 (AURKB) was greater than 50 µM and the ΔTm at 10 µM (MERTK) was 1.7 °C. It also gave a ΔTm at 10 µM (STK10) of 3.8 °C, a ΔTm at 10 µM (FGFR2) of 2.5 °C and a ΔTm at 10 µM (AURKA) of 15.2 °C. The ΔTm at 10 µM (CASK) was 0.2 °C, the IC50 (AURKC) was greater than 50 µM and the ΔTm at 10 µM (FES) was 1.4 °C.
`CCN1CCN(C(=O)Cc2ccc(Nc3ncc(F)c(Nc4ccc(C(=O)Nc5ccccc5)cc4)n3)cc2)CC1` [ERJ2-11] gave a ΔTm at 10 µM (STK38L; compound 10 µM, n = 3) of 2.6 °C, a ΔTm at 10 µM (AKT3; compound 10 µM, n = 3) of 0.1 °C and a ΔTm at 10 µM (PHKG2; compound 10 µM, n = 3) of 0.8 °C. The ΔTm at 10 µM (ABL1; compound 10 µM, n = 3) was 3.6 °C, the IC50 (AURKB; [2]) was 43 µM and the ΔTm at 10 µM (MERTK; compound 10 µM, n = 3) was 1.7 °C. It also gave a ΔTm at 10 µM (STK10; compound 10 µM, n = 3) of 4.8 °C, a ΔTm at 10 µM (FGFR2; compound 10 µM, n = 3) of 2.9 °C and a ΔTm at 10 µM (AURKA; compound 10 µM, n = 3) of 13.8 °C. For the same molecule, the ΔTm at 10 µM (CASK; compound 10 µM, n = 3) was -0.1 °C, the IC50 (AURKC; [3]) was 46 µM and the ΔTm at 10 µM (FES; compound 10 µM, n = 3) was 1.7 °C.
In the case of `O=C(Cc1ccc(Nc2ncc(F)c(Nc3ccc(C(=O)Nc4ccccc4Cl)cc3)n2)cc1)NCCN1CCOCC1` [ERJ2-04], the ΔTm at 10 µM (STK38L; compound 10 µM, n = 3) is reported as 1.5 °C, the ΔTm at 10 µM (AKT3; compound 10 µM, n = 3) is reported as -0.1 °C and the ΔTm at 10 µM (PHKG2; compound 10 µM, n = 3) is reported as 0.3 °C. The ΔTm at 10 µM (ABL1; compound 10 µM, n = 3) was 1.1 °C, the IC50 (AURKB; [1]) was greater than 50 µM and the ΔTm at 10 µM (MERTK; compound 10 µM, n = 3) was 0.9 °C. For the same molecule, the ΔTm at 10 µM (STK10; compound 10 µM, n = 3) was 0.6 °C, the ΔTm at 10 µM (FGFR2; compound 10 µM, n = 3) was 1.5 °C and the ΔTm at 10 µM (AURKA; compound 10 µM, n = 3) was 13 °C. The ΔTm at 10 µM (CASK; compound 10 µM, n = 3) was 0.1 °C, the IC50 (AURKC; [3]) was 44.5 µM and the ΔTm at 10 µM (FES; compound 10 µM, n = 3) was 0.5 °C.
